Data as given in publication PMC9822155, “Synthesis and Antiproliferative Activity against Cancer Cells of Indole-Aryl-Amide Derivatives” (Molecules, 2022).

Tests used:
[1] = test system: PC-3 (human prostate adenocarcinoma) cells; assay: MTT viability assay, PC3; format: cell-based; details: for IC50: Homo sapiens, MTT, 24 h
From the text: (§1) To investigate whether the compounds have an antitumor activity, we performed in vitro viability assays against a panel of cancer cell lines: HT29 (human colorectal adenocarcinoma), HeLa (human cervical carcinoma), IGROV-1 (human ovarian carcinoma), MCF7 (human breast cancer), PC-3 (human prostate adenocarcinoma), and Jurkat J6 (human […]). The I407 (human embryonic intestinal) and 3T3 (mouse embryonic fibroblast) cells were used as controls. The growth inhibitory concentration was determined by incubating the cells with increasing concentrations (0.01–500 μM) of the compounds for 24 h. Data obtained from cell growth assays were elaborated to assess the concentration of cell viability (IC50) and selectivity indices (SI), and the results are shown in Table 2 and Table 3, respectively.
(§2) HT29 human colorectal adenocarcinoma cells, HeLa human cervix adenocarcinoma cells, MCF7 human breast adenocarcinoma cells, PC-3 human prostate adenocarcinoma cells, J6 Jurkat Clone E6-1 acute T cell leukemia, the healthy I407 human intestine cells, and mouse embryonic fibroblast 3T3 fibroblasts as controls cell lines were purchased from American Type Culture Collection (ATCC, Manassas, VA). The human ovarian cancer cell line IGROV1 has been kindly provided by Prof. Colnaghi (Istituto Nazionale Tumori (IRCCS) (Milano, Italy). Cells were cultured in RPMI 1640 medium (Labtek Eurobio, Milan, Italy), supplemented with 10% FCS (Euroclone, Milano, Italy) and 2 mM L-glutamine (Sigma-Aldrich, Milano, Italy), at 37 °C, and a 5% CO2 atmosphere. The compounds were dissolved in DMSO in a 30–40 mM stock solution. In cell treatments, the final DMSO concentration never exceeded 0.1%.
(§3) Cells were seeded at 1.5 × 10^4 cells/well in a 96-well culture plastic plate (Sarsted, Milan, Italy), and after 24 h of growth were exposed to increasing concentrations of each distinct compound (from 0.010 μM to 500 μM) solubilized in RPMI 1640 medium. MTT assay was performed according to the literature. In brief, after 24 h of treatment, the culture medium was replaced with 0.1 mL of 3-(4,5-dimethylthiazolyl-2)-2,5-diphenyltetrazolium bromide (MTT, Sigma-Aldrich, Milano, Italy) dissolved in PBS at the concentration of 0.2 mg/mL, and samples were incubated for 2 h at 37 °C. The absorbance at 570 nm was measured using a multiwell plate reader (Tecan, Männemorf, Switzerland), and data were analyzed by Prism GraphPad software, and expressed as IC50 μM.

[2] = test system: IGROV-1 (human ovarian carcinoma) cells; assay: MTT viability assay, IGROV-1; format: cell-based; details: 24 h
From the text: as §1, §2, §3

δ-OR = target: T1, δ-OR (Homo sapiens, UniProt P41143); assay: Radioligand binding assay, δ-OR ([3H]deltorphin-2 displacement); details: [3H]deltorphin-2, membranes of CHO cells with human recombinant OR; ± SEM (n ≥ 3)
T1 construct: purchased PerkinElmer (Krakow, Poland); host or cells: CHO cells (membranes)
Protocol: (§4) In order to evaluate the affinity of the compounds for μ-, δ-, κ-ORs, radioligand binding assays were performed. Displacement of radioligands, [^3H]DAMGO (μ-OR selective), [^3H]deltorphin-2 (δ-OR selective), and [^3H]U-69593 (κ-OR selective) by the synthetic analogs was investigated in the commercial membranes of CHO cells transfected with human recombinant ORs. […] Due to the modest receptor affinities, the functional activity of the compounds was not investigated.
(§5) Opioid radioligands, [^3H]DAMGO, [^3H]deltorphin-2 and [^3H]U-69593, and human recombinant opioid receptors came from PerkinElmer (Krakow, Poland). GF/B glass fiber strips were purchased from Whatman (Brentford, UK).
(§6) To determine the affinity of peptide analogs at the respective receptors, competition binding experiments were performed. Commercial membranes of CHO cells stably expressing human opioid receptors and the competing radioligands, [^3H]DAMGO, [^3H]deltorphin-2, and [^3H]U-69593 for μ-OR, δ-OR, and κ-OR, respectively, were used. Membranes were incubated in 0.5 mL volume of 50 mM Tris/HCl (pH = 7.4), 0.5% bovine serum albumin (BSA), with a number of peptidase inhibitors (bacitracin, bestatin, captopril) and various concentrations of radioligands for 2 h at 25 °C. Non-specific binding was assessed in the presence of […]. Three independent experiments for each assay were carried out in duplicate. The data were analyzed by a nonlinear least square regression analysis computer program Graph Pad PRISM 6.0 (Graph Pad Software Inc., San Diego, CA, USA). The IC50 values were determined from the logarithmic concentration-displacement curves, and the values of the inhibitory constants (Ki) were calculated according to the equation of Cheng and Prusoff.

[3] = test system: I407 (human embryonic intestinal) cells; assay: MTT viability assay, I407; format: cell-based; details: Homo sapiens, 24 h, normal cells
From the text: as §1, §2, §3

[4] = test system: MCF7 (human breast cancer) cells; assay: MTT viability assay, MCF7; format: cell-based; details: for IC50: Homo sapiens, MCF7, MTT, 24 h
From the text: as §1, §2, §3

Jurkat J6 cells = assay: MTT viability assay, Jurkat J6; format: cell-based, human; details: Homo sapiens, Jurkat; MTT, 24 h
From the text: as §1, §2, §3

κ-OR = target: T2, κ-OR (Homo sapiens, UniProt P41145); assay: Radioligand binding assay, κ-OR ([3H]U-69593 displacement); details: [3H]U-69593, membranes of CHO cells with human recombinant OR; ± SEM (n ≥ 3)
T2 construct: purchased PerkinElmer (Krakow, Poland); host or cells: CHO cells (membranes)
Protocol: as §4, §5, §6

[5] = test system: HT29 (human colorectal adenocarcinoma) cells; assay: MTT viability assay, HT29; format: cell-based; details: for Selectivity Index IC503T3/ IC50HT29: 3T3 normal cells as reference; for IC50: Homo sapiens, HT-29, MTT, 24 h
From the text: as §1, §2, §3

[6] = test system: HeLa (human cervical carcinoma) cells; assay: MTT viability assay, HeLa; format: cell-based; details: for Selectivity Index IC503T3/ IC50HeLa: 3T3 normal cells as reference; for IC50: Homo sapiens, MTT, 24 h; for Selectivity Index IC50I407/ IC50HeLa: I407 normal cells as reference
From the text: as §1, §2, §3

[7] = test system: 3T3 (mouse embryonic fibroblast) cells; assay: MTT viability assay, 3T3; format: cell-based; details: 24 h, normal cells
From the text: as §1, §2, §3

μ-OR = target: T3, μ-OR (Homo sapiens, UniProt P35372); assay: Radioligand binding assay, μ-OR ([3H]DAMGO displacement); details: membranes of CHO cells with human recombinant OR, ± SEM (n ≥ 3)
T3 construct: purchased PerkinElmer (Krakow, Poland); host or cells: CHO cells (membranes)
Protocol: as §4, §5, §6

T3 sequence (P35372 whole entry): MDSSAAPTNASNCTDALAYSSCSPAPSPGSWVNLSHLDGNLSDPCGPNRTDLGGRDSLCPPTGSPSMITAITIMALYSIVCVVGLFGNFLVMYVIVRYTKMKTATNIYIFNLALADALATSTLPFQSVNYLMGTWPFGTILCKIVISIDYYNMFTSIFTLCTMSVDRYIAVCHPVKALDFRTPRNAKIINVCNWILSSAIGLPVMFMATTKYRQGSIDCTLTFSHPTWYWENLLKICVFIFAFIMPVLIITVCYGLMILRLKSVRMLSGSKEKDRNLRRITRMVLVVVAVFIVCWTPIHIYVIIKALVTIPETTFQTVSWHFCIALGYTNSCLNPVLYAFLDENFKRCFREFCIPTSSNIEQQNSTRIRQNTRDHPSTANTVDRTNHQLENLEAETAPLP
T1 sequence (P41143 whole entry): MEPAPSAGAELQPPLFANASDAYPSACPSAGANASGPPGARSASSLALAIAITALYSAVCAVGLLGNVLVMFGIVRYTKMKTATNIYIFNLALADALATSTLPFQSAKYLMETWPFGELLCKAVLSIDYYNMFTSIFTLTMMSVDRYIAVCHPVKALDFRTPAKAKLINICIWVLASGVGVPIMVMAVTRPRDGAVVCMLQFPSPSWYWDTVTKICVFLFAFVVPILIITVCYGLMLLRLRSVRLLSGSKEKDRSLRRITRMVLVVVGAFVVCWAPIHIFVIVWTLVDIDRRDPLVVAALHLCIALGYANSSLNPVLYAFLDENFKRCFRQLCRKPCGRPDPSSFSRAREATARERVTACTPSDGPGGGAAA
T2 sequence (P41145 whole entry): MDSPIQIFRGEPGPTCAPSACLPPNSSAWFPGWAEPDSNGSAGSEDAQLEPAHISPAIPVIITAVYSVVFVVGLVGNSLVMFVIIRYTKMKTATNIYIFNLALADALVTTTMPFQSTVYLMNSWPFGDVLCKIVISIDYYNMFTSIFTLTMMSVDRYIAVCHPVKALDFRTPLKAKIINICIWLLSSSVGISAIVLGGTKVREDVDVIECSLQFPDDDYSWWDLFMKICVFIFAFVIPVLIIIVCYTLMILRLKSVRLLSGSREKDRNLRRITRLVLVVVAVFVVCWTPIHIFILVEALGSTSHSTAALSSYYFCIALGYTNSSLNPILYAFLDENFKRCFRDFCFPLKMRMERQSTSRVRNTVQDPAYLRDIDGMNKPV

IC50 [1] [µM] | IC50 [2] [µM] | Ki (δ-OR) [µM] | IC50 [4] [µM] | IC50 (Jurkat J6 cells) [µM] | Ki (κ-OR) [µM] | IC50 [5] [µM] | IC50 [6] [µM] | Ki (µM) κ-OR (κ-OR) | Ki (μ-OR) [µM] | Structure (SMILES) | IC50 [3] [µM] | Selectivity Index IC503T3/ IC50HT29 [5] | Selectivity Index IC50I407/ IC50HT29 ([5]; I407 normal cells as reference) | Selectivity Index IC503T3/ IC50HeLa [6] | Selectivity Index IC50I407/ IC50HeLa [6] | IC50 [7] [µM] | Selectivity Index IC50I407/ IC50PC3 ([1]; I407 normal cells as reference) | Selectivity Index IC50I407/ IC50MCF7 ([4]; I407 normal cells as reference) | Selectivity Index IC503T3/ IC50MCF7 ([4]; 3T3 normal cells as reference) | Selectivity Index IC503T3/ IC50PC3 ([1]; 3T3 normal cells as reference)
> 500 | > 500 | 37.1 ± 1.4 | > 500 | > 500 | 5 ± 2.9 | 0.31 ± 0.06 | 25 ± 0.06 |  |  | O=C(CCc1ccc(O)cc1)N(CCc1c[nH]c2ccccc12)Cc1ccccc1 [Compound 1] | 63 ± 0.06 | 530 | 203.23 | 6.572 | 2.52 | 164.3 ± 0.01 |  |  |  | 
2.13 ± 0.04 | > 500 | 9 ± 0.6 | 0.81 ± 0.03 | > 500 | 2.5 ± 0.4 | > 500 | > 500 | low μM range | 54.6 ± 3.5 | Nc1ccc(CC(=O)N(CCc2c[nH]c3ccccc23)Cc2ccccc2)cc1 [Compound 2] | 0.35 ± 0.03 |  |  |  |  | > 500 | 0.164 | 0.432 |  | 
> 500 | > 500 | 6.5 ± 0.8 | > 500 | > 500 | 7.8 ± 0.2 | > 500 | 5.64 ± 0.01 |  | 10.7 ± 1.7 | Nc1ccc(CC(=O)Nc2ccc(CC(=O)N(CCc3c[nH]c4ccccc34)Cc3ccccc3)cc2)cc1 [Compound 3] | 75 ± 0.07 |  |  | 0.089 | 13.29 | 0.5 ± 0.04 |  |  |  | 
> 500 | > 500 |  | 0.84 ± 0.03 | > 500 | 7.4 ± 1.3 | 0.96 ± 0.04 | 1.87 ± 0.02 |  |  | Nc1ccc(CNC(=O)Cc2c[nH]c3ccccc23)cc1 [Compound 4] | > 500 | 0.656 |  | 0.337 |  | 0.63 ± 0.02 |  |  | 0.75 | 
166 ± 0.03 | > 500 | 85.5 ± 2 | > 500 | > 500 | 26.7 ± 9.5 | > 500 | > 500 |  | 451 ± 11 | NC(=O)CN(Cc1ccc(N)cc1)C(=O)Cc1c[nH]c2ccccc12 [Compound 6] | > 500 |  |  |  |  | 0.11 ± 0.03 |  |  |  | 0.001
> 500 | > 500 | 115 ± 45 | 0.49 ± 0.01 | > 500 | 3.8 ± 0.3 | > 500 | > 500 | low μM range |  | Nc1ccc(CN(CCCO)C(=O)Cc2c[nH]c3ccccc23)cc1 [Compound 7] | > 500 |  |  |  |  | > 500 |  |  |  | 
